In the CheMixHub viscosity set:

Experiment: xn = mol fraction of the nth substance listed

N[C@@H](Cc1c[nH]cn1)C(=O)O + O
Conditions | viscosity [mPa·s]
308.15 K, 100 kPa, x1 = 0.002157 | 0.7543
308.15 K, 100 kPa, x1 = 0.002516 | 0.7596
308.15 K, 100 kPa, x1 = 0.002876 | 0.7651
308.15 K, 101 kPa, x1 = 0.00027 | 0.724
308.15 K, 101 kPa, x1 = 0.00063 | 0.7274
308.15 K, 101 kPa, x1 = 0.00099 | 0.7304
308.15 K, 101 kPa, x1 = 0.0013 | 0.7334
308.15 K, 101 kPa, x1 = 0.00243 | 0.7421
308.15 K, 101.3 kPa, x1 = 0.0004504 | 0.723
308.15 K, 101.3 kPa, x1 = 0.0008971 | 0.728
308.15 K, 101.3 kPa, x1 = 0.001346 | 0.733
308.15 K, 101.3 kPa, x1 = 0.002239 | 0.743
308.15 K, 101.3 kPa, x1 = 0.002688 | 0.748
313.15 K, 100 kPa, x1 = 0.000358 | 0.6589
313.15 K, 100 kPa, x1 = 0.00036 | 0.657
313.15 K, 100 kPa, x1 = 0.00099 | 0.672
313.15 K, 100 kPa, x1 = 0.00171 | 0.682
313.15 K, 100 kPa, x1 = 0.001798 | 0.6769
313.15 K, 100 kPa, x1 = 0.002516 | 0.6853
313.15 K, 100 kPa, x1 = 0.002876 | 0.6895
313.15 K, 101 kPa, x1 = 0.00027 | 0.6566
313.15 K, 101 kPa, x1 = 0.00063 | 0.6592
313.15 K, 101 kPa, x1 = 0.00092 | 0.6773
313.15 K, 101 kPa, x1 = 0.00243 | 0.6716
313.15 K, 101 kPa, x1 = 0.003563 | 0.7141
313.15 K, 101.3 kPa, x1 = 0.0004504 | 0.657
313.15 K, 101.3 kPa, x1 = 0.001791 | 0.672
313.15 K, 101.3 kPa, x1 = 0.002239 | 0.677
313.15 K, 101.3 kPa, x1 = 0.002688 | 0.682
318.15 K, 100 kPa, x1 = 0.00027 | 0.603
318.15 K, 100 kPa, x1 = 0.000358 | 0.6026
318.15 K, 100 kPa, x1 = 0.000718 | 0.6065
318.15 K, 100 kPa, x1 = 0.00099 | 0.614
318.15 K, 100 kPa, x1 = 0.00108 | 0.61
318.15 K, 100 kPa, x1 = 0.00117 | 0.616
318.15 K, 100 kPa, x1 = 0.00135 | 0.618
318.15 K, 100 kPa, x1 = 0.00144 | 0.6135
318.15 K, 100 kPa, x1 = 0.00171 | 0.623
318.15 K, 100 kPa, x1 = 0.002157 | 0.62
318.15 K, 100 kPa, x1 = 0.002516 | 0.6232
318.15 K, 100 kPa, x1 = 0.002876 | 0.6262
318.15 K, 101.3 kPa, x1 = 0.0004504 | 0.598
318.15 K, 101.3 kPa, x1 = 0.0008971 | 0.603
318.15 K, 101.3 kPa, x1 = 0.001791 | 0.613
318.15 K, 101.3 kPa, x1 = 0.002239 | 0.618
318.15 K, 101.3 kPa, x1 = 0.002688 | 0.623
323.15 K, 101 kPa, x1 = 0.00092 | 0.5791
323.15 K, 101 kPa, x1 = 0.001804 | 0.5862
323.15 K, 101 kPa, x1 = 0.003563 | 0.6075
323.15 K, 101 kPa, x1 = 0.005413 | 0.6374
